Test results taken from ChEMBL document CHEMBL4145610, “Total Syntheses of Lobaric Acid and Its Derivatives from the Antarctic Lichen Stereocaulon alpinum” (J Nat Prod, 2018).

Target: T1, Tyrosine-protein phosphatase non-receptor type 1 (Homo sapiens, UniProt P18031)
T1 sequence (P18031 whole entry): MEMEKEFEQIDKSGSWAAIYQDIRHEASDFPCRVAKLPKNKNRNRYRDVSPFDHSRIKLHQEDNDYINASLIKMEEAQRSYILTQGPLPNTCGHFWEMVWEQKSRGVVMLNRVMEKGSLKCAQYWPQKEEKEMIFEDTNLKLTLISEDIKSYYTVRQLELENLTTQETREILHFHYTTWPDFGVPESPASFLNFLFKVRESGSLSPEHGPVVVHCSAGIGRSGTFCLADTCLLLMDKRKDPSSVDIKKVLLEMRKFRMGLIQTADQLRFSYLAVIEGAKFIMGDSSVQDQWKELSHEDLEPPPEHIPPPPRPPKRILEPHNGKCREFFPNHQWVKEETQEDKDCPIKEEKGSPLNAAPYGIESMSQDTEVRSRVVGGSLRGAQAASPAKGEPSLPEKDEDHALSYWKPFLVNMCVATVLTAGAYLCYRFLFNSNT
Test: Inhibition of PTP1B (1 to 298 residues) (unknown origin) using p-nitrophenylphosphate as substrate after 30 mins

IC50 | SMILES
500 nM | CCC/C=C1\OC(=O)c2c(Oc3c(O)cc(O)c(C(=O)O)c3CCCCC)cc(OC)cc21
900 nM | CCCCCc1c(Oc2cc(OC)cc3c2C(=O)OC3(O)CCCC)c(O)cc(O)c1C(=O)O (stereo not given)
1500 nM | CCCCCc1c(Oc2cc(OC)cc3c2C(=O)OC3(CCCC)OC)c(O)cc(O)c1C(=O)O (stereo not given)
800 nM | CCCCCc1c2c(cc(O)c1C(=O)O)OC(=O)c1c(cc(OC)cc1C(=O)CCCC)O2 [LOBARIC ACID]
1700 nM | CCCCCc1cc(O)cc(O)c1Oc1cc(OC)cc2c1C(=O)OC2(O)CCCC (stereo not given) [SAKISACAULON A]
